# From PMC5034901, “Development & automation of a novel [^18F]F prosthetic group, 2-[^18F]-fluoro-3-pyridinecarboxaldehyde, and its application to an amino(oxy)-functionalised Aβ peptide” (Applied Radiation and Isotopes, 2016)
# Test: Pre-clinical PET biodistribution
# Assay type: in vivo
# Details: Wistar rats, radiolabel carried on [18F]RI-OR2-TAT
# Method: Wistar rats (n =3) were anaesthetised using isoflurane (induction 4% and maintained 1.5%) in 70% N2O and 30% O2 mixture. […] All scans were carried out using a Siemens Inveon® PET-CT scanner. The acquisition protocol parameters consisted of a preliminary CT scan to attain attenuation correction factors followed by a 1 h PET acquisition with time coincidence window of 3.432 ns and levels of energy discrimination set between 350 keV and 650 keV. Images were reconstructed and analysed as described elsewhere ([Boutin et al., 2015]).
compound,measurement,value
"O=Cc1cccnc1[18F] [[^18F]FPCA, 2-[^18F]-Fluoro-3-pyridinecarboxaldehyde]",stability to defluorination (bone uptake of radioactivity),relatively little bone uptake
